# According to patent US10160748B2 (AbbVie Inc., priority 2015, dated 2018):
# Biological target: TNFα trimer (Homo sapiens, UniProt P01375)
# Assay: TNFα FP Competitive Binding Assay
# Details: FP binding assay; 20 nM TNFα trimer, 1 nM OregonGreen488 probe; read-out: TNF IC50
# How it was run: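 Fluorescence polarization competition: 20 nM TNFα trimer with 1 nM fluorescein-labelled probe in HEPES/NaCl/EDTA/Triton X-100 buffer, compound in 12-point 1:3 dilutions (final top 338 μM or 100 μM). Incubated 18-24 h, background-subtracted mP read, variable-slope dose-response fitting.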
# Sequence of TNFα trimer (P01375 77-233 limits assumed): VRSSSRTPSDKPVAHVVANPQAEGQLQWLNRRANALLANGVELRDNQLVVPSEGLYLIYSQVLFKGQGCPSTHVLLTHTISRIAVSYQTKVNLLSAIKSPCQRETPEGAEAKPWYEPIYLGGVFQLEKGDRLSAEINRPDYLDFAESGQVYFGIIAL
row,Structure (SMILES),IC50
1,Cn1c(=O)c2ccc(-c3cnc(C(C)(C)O)nc3)cc2n1Cc1cn(Cc2cccnc2)cc1C(F)(F)F [Example #127],< 1000 nM
2,"Cn1c(=O)c2ccc(-c3cnc(C(C)(C)O)nc3)cc2n1Cc1cn(Cc2ccnnc2)cc1C(F)(F)F [Example #128, 6-(2-(2-Hydroxypropan-2-yl)pyrimidin-5-yl)-2-methyl-1-((1-(pyridazin-4-ylmethyl)-4-(trifluoromethyl)-1H-pyrrol-3-yl)methyl)-1H-indazol-3(2H)-one]",1000 to 10000 nM
3,"CC(=O)N1CCN(c2ncc(-c3ccc4c(=O)n(C)n(Cc5cc(CN6CCN(C)C6=O)ccc5OC(F)F)c4c3)cn2)C[C@H]1C [Example #129*, (R)-6-(2-(4-Acetyl-3-methylpiperazin-1-yl)pyrimidin-5-yl)-1-(2-(difluoromethoxy)-5-((3-methyl-2-oxoimidazolidin-1-yl)methyl)benzyl)-2-methyl-1H-indazol-3(2H)-one]",1000 to 10000 nM
4,"COc1c[nH]nc1Cn1cc(Cn2c3cc(-c4cnc(C(C)(C)O)nc4)ccc3c(=O)n2C)c(C(F)(F)F)c1 [Example #130, 6-(2-(2-Hydroxypropan-2-yl)pyrimidin-5-yl)-1-((1-((4-methoxy-1H-pyrazol-3-yl)methyl)-4-(trifluoromethyl)-1H-pyrrol-3-yl)methyl)-2-methyl-1H-indazol-3(2H)-one]",< 1000 nM
5,"Cc1ccc(OC(F)F)c(Cn2c3cc(C4=CCC(C(C)O)OC4)c(F)cc3c(=O)n2C)c1 (stereo not drawn) [Example #131, 1-(2-(Difluoromethoxy)-5-methylbenzyl)-5-fluoro-6-(6-(1-hydroxyethyl)-5,6-dihydro-2H-pyran-3-yl)-2-methyl-1H-indazol-3(2H)-one]",< 1000 nM
6,"Cc1ccc(OC(F)F)c(Cn2c3cc(C4=CCC(C(C)(C)O)OC4)c(F)cc3c(=O)n2C)c1 (stereo not drawn) [Example #132, 1-(2-(Difluoromethoxy)-5-methylbenzyl)-5-fluoro-6-(6-(2-hydroxypropan-2-yl)-5,6-dihydro-2H-pyran-3-yl)-2-methyl-1H-indazol-3(2H)-one]",< 1000 nM
7,"Cn1c(=O)c2ccc(-c3cnc(C(C)(C)O)nc3)cc2n1Cc1cc(Cc2ccn[nH]2)ccc1OC(F)F [Example #133, 1-(5-((1H-Pyrazol-5-yl)methyl)-2-(difluoromethoxy)benzyl)-6-(2-(2-hydroxypropan-2-yl)pyrimidin-5-yl)-2-methyl-1H-indazol-3(2H)-one]",< 1000 nM
8,"CC(=O)N1CCN(c2ncc(-c3ccc4c(=O)n(Cc5cccc(C#N)c5)n(Cc5ccccc5Cl)c4c3)cn2)C[C@H]1C [Example #134*, (R)-3-((6-(2-(4-Acetyl-3-methylpiperazin-1-yl)pyrimidin-5-yl)-1-(2-chlorobenzyl)-3-oxo-1H-indazol-2(3H)-yl)methyl)benzonitrile]",1000 to 10000 nM
9,"Cc1ccc(OC(F)F)c(Cn2c3cc(-c4cnn5c(C(C)(C)O)cnc5c4)ccc3c(=O)n2C)c1 [Example #135, 1-(2-(Difluoromethoxy)-5-methylbenzyl)-6-(3-(2-hydroxypropan-2-yl)imidazo[1,2-b]pyridazin-7-yl)-2-methyl-1H-indazol-3(2H)-one]",< 1000 nM
